Data from PubChem BioAssay (NCI).
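96-well plates; 48 h exposure; 5 concentrations. Endpoints by linear interpolation between flanking doses. Not reached: highest tested concentration assigned. Here, GI50 denotes the concentration required for 50% inhibition of growth. At the TGI there is no net growth.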

Key:
Test in all cases: NCI-60 cell line screen, 48 h
786-0 renal = test system: 786-0 renal
CAKI-1 renal = test system: CAKI-1 renal
HCT-116 colon = test system: HCT-116 colon
K-562 leukemia = test system: K-562 leukemia
RPMI-8226 leukemia = test system: RPMI-8226 leukemia
RXF 393 renal = test system: RXF 393 renal
SNB-19 CNS = test system: SNB-19 CNS
SNB-75 CNS = test system: SNB-75 CNS
DU-145 prostate = test system: DU-145 prostate
MCF7 breast = test system: MCF7 breast

Structure (SMILES)	TGI (786-0 renal) [µM]	TGI (CAKI-1 renal) [µM]	TGI (HCT-116 colon) [µM]	TGI (K-562 leukemia) [µM]	TGI (RPMI-8226 leukemia) [µM]	TGI (RXF 393 renal) [µM]	TGI (SNB-19 CNS) [µM]	TGI (SNB-75 CNS) [µM]	TGI (DU-145 prostate) [µM]	TGI (MCF7 breast) [µM]	GI50 (786-0 renal) [µM]	GI50 (DU-145 prostate) [µM]	GI50 (HCT-116 colon) [µM]	GI50 (K-562 leukemia) [µM]	GI50 (MCF7 breast) [µM]	GI50 (RPMI-8226 leukemia) [µM]	GI50 (RXF 393 renal) [µM]	GI50 (SNB-19 CNS) [µM]	GI50 (SNB-75 CNS) [µM]	GI50 (CAKI-1 renal) [µM]
CCc1ccccc1NC(=O)c1cccc([N+](=O)[O-])c1O	> 100	> 100	87.5	> 100	> 100	45.1	> 100	71.8												
O=c1/c(=C/c2ccccc2[N+](=O)[O-])sc2nnc(-c3cccnc3)n12	> 100	2.78	> 100	> 100	> 100	> 100	32.1	> 100												
Nc1ncc(Cc2ccc3c(c2)OCO3)c(N)n1	> 100	> 100	> 100	> 100	> 100	> 100	> 100		> 100	> 100										
N#CNC(N)=NCc1ccccc1	> 100		> 100		> 100			> 100												
CCn1cc(C(=O)O)c(=O)c2cc(F)c(N3CCN(S(=O)(=O)c4cccc5ccccc45)CC3)cc21	20.9		> 100	> 100	9.73	11.8	> 100	8.49	> 100	9.04	4.5	3.97	3.88	3.93	2.72	2.79	3.19	3.47	1.89	
COc1cc([C@@H]2c3cc4c(cc3[C@@H](NC(=O)c3ccc(C#N)cc3)C3COC(=O)[C@@H]32)OCO4)cc(OC)c1O (stereo partly drawn)	16	13.2	3.29	> 100	11.7	9.92	4.65	5.49												
O=C1NC(=O)c2c1n(Cc1ccccc1)c(=O)n2Cc1ccccc1	> 100	> 100	> 100	> 100	> 100	> 100	> 100	> 100												
CCCCCCCCCCCC[N+]1(CCCCCCCCCCCC)CCCC(C)C1 (stereo not drawn)	1.66	1.92	1.21			0.894		1.63	1.87	1.2	0.412	0.57	0.185		0.257		0.198		0.349	
CCCCCCCC(=O)OCC(COC(=O)C(C)(C)C)OC(=O)Cc1ccccc1 (stereo not drawn)	> 100	> 100	> 100	> 100	> 100		> 100													
O=C(Nc1ccc(N=C=S)cc1Cl)c1cc(Br)cc(Br)c1O	75.2	> 100	31.7	97.1		> 100	64.3	> 100	39.4	> 100										
CCOC(=O)c1nc(C)oc1C(F)(F)F	> 100	> 100	> 100	> 100		> 100	> 100	> 100												
O=c1cc(O)cc2n1CCC2	> 100	> 100	> 100	> 100	> 100	> 100	> 100	> 100												
COc1nc2c(c(O)c(C)c(=O)n2OC2OCC(OC(C)=O)C(OC(C)=O)C2OC(C)=O)c(=O)n1C (stereo not drawn)	> 100		> 100	> 100		> 100	> 100	> 100												
COC(=O)C1C(=O)O[C@@H](c2ccc3c(c2)OCO3)C1C(=O)OC (mixture of isomers)	> 100	> 100	> 100	> 100	> 100	> 100	> 100	> 100												
COc1cc(C)c(CC/C(C)=C/Cc2cc(O)ccc2O)c(C)c1C	> 25	> 25	> 25	> 25	> 25	> 25	> 25	> 25												
Cc1nc(N)nc(CCC(=O)Nc2cccc(C(F)(F)F)c2)c1-c1ccc(Cl)cc1	> 100	> 100	> 100	> 100	> 100	> 100	> 100	> 100												
Cc1ccc(S(=O)(=O)OCC/C(=C\[Si](C)(C)C)c2ccccc2)cc1	> 100	> 100	> 100	> 100	> 100	> 100	> 100	> 100												
N#CC(C(=O)C(=O)Nc1c(Cl)cccc1Cl)c1ccccc1 (stereo not drawn)	> 100	> 100		> 100	> 100		> 100	> 100			> 100			> 100		> 100		> 100	> 100	> 100
COc1ccc2sc3c(NCCCN)nc4ccccc4c3c(=O)c2c1	3.11	3.06	2.85	3.4	3.89	2.9		2.72	3.31	3.48	1.63	1.81	1.5	1.11	1.7	1.85	1.5		1.38	1.6
OCc1cc2c(cn1)[nH]c1ccc(NCc3ccccc3)cc12	58.4	> 100	38.4	> 100	35.8	78.5	> 100	69.7												
O=[N+]([O-])c1ccc(Cl)c2c([N+](=O)[O-])cccc12	> 10		5.32	> 10	> 10	> 10	> 10	> 10		> 10										
COc1ccc(OC)c(/C=C/c2nc(=S)n(-c3ccc(Cl)cc3)[nH]2)c1	> 100		> 100	> 100	> 100	38.7	> 100	> 100	> 100	> 100	7.17	19.1	4.05	4.95	4.44	5.22	3.38	12.7	2.85	
